Laboratory results reported in patent US5308867A, “Platelet activating factor antagonists, named "the phomactins", their preparation and use” (Sankyo Company, Limited, priority 1988, dated 1994).

Experiments:
[1] = test system: arrhythmias evoked by ligation of left anterior descending coronary artery; conditions: cited from earlier work
[2] = test system: infarct size after coronary artery ligation; conditions: 5 mg kg^-1 i.v. immediately before occlusion, after 24 h of occlusion, rats, cited from earlier work
platelet aggregation = assay: Antiplatelet aggregation test in rabbit platelet-rich plasma, synthetic C16:0 PAF-induced (method of Born et al.); assay type: cell-based; conditions: platelet count 6×10^5 /μl, C16:0 PAF final 1×10^-8 -3×10^-8 M; for IC50: Oryctolagus cuniculus, read-out: IC50 (concentration necessary to inhibit aggregation by 50%)
Method: The following antiplatelet aggregation test was performed, using the phomactin A thus obtained.
Blood was drawn from a rabbit heart and immediately mixed with nine times its volume of a 3.8% w/v aqueous solution of sodium citrate. A platelet-rich plasma (PRP) was then obtained as a supernatant by centrifugation of the blood mixture at 150×g for 15 minutes at room temperature. The precipitated fraction remaining from the blood mixture was then centrifuged for a further 15 minutes at 10,000×g to obtain a platelet-poor plasma (PPP) as a supernatant. Appropriate proportions of the PRP and the PPP were mixed to obtain a plasma having a platelet count of 6×10^5 /μl.
Platelet aggregation was determined by the method of Born et al. [Nature, 194, 927-929 (1962)] where an increase in light transmission through the test sample is measured by means of an aggregometer.
The aggregation resulting from the addition of the PAF alone, without the prior addition of the test compound, was taken as 100%.
Instead of the test solution, physiological saline was added and the aggregation at one minutes after the addition of C16 -PAF was used as the control.

Solubility = assay type: physicochemical; conditions: for Solubility in organic solvents: methanol, ethanol, acetone, ethyl acetate, chloroform, dimethyl sulfoxide, benzene and diethyl ether

| SMILES | number of ectopic beats during the 30 min ischemic period (in words) ([1]; 5 mg kg^-1, 15 min before coronary artery occlusion, mongrel dogs) | Number of ectopic beats, 5-10 min of ischemia, mean ± SEM ([1]; 5 mg kg^-1 i.v. bolus 15 min before ligation, 5-10 min, dogs, p < 0.05 (Wilcoxon)) | Number of ectopic beats, 10-15 min of ischemia, mean ± SEM ([1]; 5 mg kg^-1 i.v. bolus 15 min before ligation, 10-15 min, dogs, p < 0.05 (Wilcoxon)) | Number of ectopic beats, 15-20 min of ischemia, mean ± SEM ([1]; 5 mg kg^-1 i.v. bolus 15 min before ligation, 15-20 min, dogs, p < 0.05 (Wilcoxon)) | Number of ectopic beats, 20-25 min of ischemia, mean ± SEM ([1]; 5 mg kg^-1 i.v. bolus 15 min before ligation, 20-25 min, dogs, p < 0.05 (Wilcoxon)) | Number of ectopic beats, 25-30 min of ischemia, mean ± SEM ([1]; 5 mg kg^-1 i.v. bolus 15 min before ligation, 25-30 min, dogs, p < 0.05 (Wilcoxon)) | infarct size ([2]; control 26±2.2%, p<0.05) | infarct size (in words) ([2]; preliminary studies) | IC50 (platelet aggregation) [µM] | inhibition of platelet aggregation (platelet aggregation; at a concentration of 10 g/ml (so in the source)) | Solubility in organic solvents (Solubility) | Solubility in water (Solubility) |
| --- | --- | --- | --- | --- | --- | --- | --- | --- | --- | --- | --- | --- |
| CC1C(=O)OC2C(O)C34C5CC(C(C)(C)C)C36C(OC(=O)C6O)OC4(C(=O)O5)C12O (stereo not drawn) [BN-52021] | significantly reduced the number of ectopic beats | 10 ± 5.4 | 10 ± 5.3 | 15 ± 6.3 | 55 ± 28.6 | 98 ± 39.0 | 17±1.8 % of heart tissue | significantly reduced the infarct size | – | – | – | – |
| CC1=CCCC2(C)OC3CC(C)C(C)(CC1)C1=C3C(O)(OC1)C2O (stereo not drawn) [Phomactin A, 3,3a-dihydroxy-2,6-(3'-methyl-3'-hexeno)-2,6,7-trimethyl-3a,5,6,7,8,8a-hexanhydrofuro[2,3,4-de]chroman] | – | – | – | – | – | – | – | – | 17 | about 91.7% | Soluble in methanol, ethanol, acetone, ethyl acetate, chloroform, dimethyl sulfoxide, benzene and diethyl ether | insoluble in water |
| CC1=CCCC2(C)OC2C(=O)C2=CC(O)C(C)C(C)(CC1)C2(C)O (stereo not drawn) [Phomactin B, 13,15-dihydroxy-3,4-epoxy-2-oxo-4,8,11,12,15-pentamethylbicycl[9.3.1]pentadeca-7,14-diene] | – | – | – | – | – | – | – | – | 17 | – | Soluble in methanol, ethanol, acetone, ethyl acetate, chloroform, dimethyl sulfoxide, benzene and diethyl ether | insoluble in water |
